The text below walks through data of publication PMC6754136 (PLoS ONE, 2019).

Data set [1] can be described thus: mitochondrial viability assay with resazurin. The data set is classed as cell-based, human. Conditions: human, four cell lines, 0.01–10 μM, even at the highest concentration tested (10 μM). On the procedure:
The human cell lines SH-SY5Y (SY5Y, ATCC CRL-2266), SK-MEL-5 (SKMEL-5, ATCC HTB-70), and NCI-H187 (H187, ATCC CRL-5804) were cultured in RPMI medium supplemented with 10% FBS and no antibiotics. These three cell lines were generously provided by the laboratory of Susan Lindquist via Luke Whitesell (currently at the University of Toronto, Toronto, ON, Canada). BJ-hTERT (described in [27], generously provided by Robert Weinberg, Whitehead Institute, Cambridge MA, USA) was cultured in 4:1 DMEM:M199 medium supplemented with 15% FBS and no antibiotics. All cell lines were grown and assayed at 37 °C, 5% CO2. All cell lines were screened for mycoplasma contamination by PCR (Mycoscope Detection Kit, Fisher Scientific) before use in assays.
For viability assays, cells were plated in black, clear bottom 384-well tissue culture-treated plates (Corning) and incubated overnight in the media described above but supplemented with 50 U/mL penicillin-streptomycin antibiotic (Life Technologies). Then, DMSO (no drug controls) and PDE5 inhibitors (0.01–10 μM; synthesized as described above or purchased from Selleck Chemicals) were added using a Hewlett-Packard D300 Digital Dispenser (Tecan) and incubated for 3 days. Maximum DMSO concentration was normalized to 0.1% of the total well volume for all wells. Resazurin (R & D Systems) was diluted 1:20 into each well and incubated for up to 4 hours. Fluorescence was read in a Tecan plate reader (excitation = 570 nm, emission = 585 nm). Wells treated with PDE5 inhibitors were normalized against control wells treated with DMSO to measure percent mitochondrial viability (100 = no effect on mitochondrial viability).
(The colour change of resazurin is a common sign of viable cells or microbes.)

The next data set has as its target recombinant human PDE5 (Homo sapiens, UniProt O76074). As to the kind of experiment: in vitro PDE5 kinetics assay (nonlinear regression, AICc model comparison). The data set is classed as biochemical. The method, then: guidelines were considered in the description of the following enzyme activity assays. […] For kinetics assays, 0.015, 0.05, and 0.2 μM of compounds 3 and 7 were used. […] Maximum DMSO concentration was 0.1% of the final reaction volume for all samples. […] The final reaction volume was 100 μL. Reactions were stopped with the addition of 100 μL of 0.1 M HCl and neutralized by adding 0.1 M NaOH until the pH was 7. […] Reaction mixture components were separated with a ramp gradient of solvent A and B run at a flow rate of 0.5 mL/min as follows: 0-4 minutes 0% B, 4-7 minutes 0-95% B, 7-8 minutes 95% B, 8-11.1 minutes 0% B. GMP was measured using selected reaction monitoring in positive mode for a centroid center mass of 152. […] Top value was constrained to 100, all other parameters were unconstrained. To obtain the dose-response curves for visual confirmation of the best-fit line, we executed a nonlinear regression fitting using the log(inhibitor) vs. response-variable slope (four parameters) equation in Prism. […] AICc analysis (built into Prism) was used to confirm the best-fitting inhibition model. […] Inhibition models were also compared via visual inspection of the fit of the calculated curves on the Michaelis-Menten plots.

“Also recorded” adds a separate entry of the source.

One may read the viability as a read-out of living cells in per cent, often relative to untreated cells. The term Ki denotes a measure of affinity in units of concentration, obtained from inhibition or displacement. `COc1ccc(-c2oc3c(CC=C(C)C)c(O)cc(O)c3c(=O)c2OCCCO)cc1` [Compound 7, 3-O-(3-Hydroxypropyl)-Icaritin] returned a viability at 3 days, 10 μM in data set [1] above 70%. The Ki at recombinant human PDE5 stood at 36 ± 7 nM. The Preferred model result at recombinant human PDE5 (AICc comparison of competitive vs noncompetitive inhibition) and at recombinant human PDE5 (AICc comparison of competitive vs uncompetitive inhibition) was “Competitive inhibition” each time. Further, the “probability that the competitive inhibition model is correct” value at recombinant human PDE5 (AICc, compared to a noncompetitive or uncompetitive model) is above 99%. In addition, the “Probability it is correct (competitive inhibition)” value is above 99.99% on recombinant human PDE5 (AICc, competitive vs noncompetitive inhibition) and above 99.99% at recombinant human PDE5 (AICc, competitive vs uncompetitive inhibition). Also, the mode of inhibition result at recombinant human PDE5 (Lineweaver-Burk plot and AICc analysis) is “competitive inhibition as the best fitting model; also recorded: partially competitive model”.
